From ChEMBL document CHEMBL5352438, “Discovery of Pyrrolo[2,3-d]pyrimidine derivatives as potent and selective colony stimulating factor 1 receptor kinase inhibitors” (Eur J Med Chem, 2022)

Columns and labels:
[1] = in vivo; settings: Sprague-Dawley, rat, po, 10 mg/kg
[2] = in vivo; settings: Sprague-Dawley, rat, iv, 1 mg/kg
[3] = in vivo; settings: Sprague-Dawley, rat, po, 10 mg/kg; remark: listed apart in the source
[4] = in vivo; settings: Sprague-Dawley, rat, po, 10 mg/kg; remark: listed apart in the source
[5] = in vivo; settings: Sprague-Dawley, rat, iv, 1 mg/kg; remark: listed apart in the source
[6] = in vivo; settings: Sprague-Dawley, rat, iv, 1 mg/kg; remark: listed apart in the source
[7] = in vivo; settings: Sprague-Dawley, rat, po, 10 mg/kg; remark: listed apart in the source
[8] = in vivo; settings: Sprague-Dawley, rat, iv, 1 mg/kg; remark: listed apart in the source

`Cn1ccc2c(Oc3ccc(NC(=O)Cc4ccc(C(F)(F)F)c(F)c4)cc3)ncnc21` gave a CL/F at 12 h [1] of 11.6 mL/min/kg, a clearance at 12 h [2] of 13.3 mL/min/kg and an AUC(0-inf) at 12 h [3] of 14600 ng·h/mL. For the same compound, the bioavailability at 12 h [4] was 111%, the AUC(0-inf) at 12 h [5] was 1310 ng·h/mL and the Vd at 12 h [6] was 1.55 L/kg. The Cmax at 12 h [7] was 1190 ng/mL and the Cmax at 12 h [8] was 1430 ng/mL.
